# Laboratory results taken from US20250230193A1, “CYCLIC COMPOUND HAVING SELECTIVE KRAS INHIBITORY EFFECT ON HRAS AND NRAS” (CHUGAI SEIYAKU KABUSHIKI KAISHA, priority 2022, published 2025).
# Where a SMILES comes first, the peptide text is derived from it. Bridges are numbered along the chain shown (N, C = ends). [ ]: non-standard residue; d: D form. The star is where a group is joined. hPhe(3-Cl-4-CF3) = N[C@@H](CCc1ccc(C(F)(F)F)c(Cl)c1)C(=O)O; NMePhe(4-Me) = CN[C@@H](Cc1ccc(C)cc1)C(=O)O; NMeGly(cPent) = CN[C@H](C(=O)O)C1CCCC1; NMeD = CN[C@@H](CC(=O)O)C(=O)O; NMeL = CN[C@@H](CC(C)C)C(=O)O; Morpholide = C1CN(*)CCO1; NMeA = CN[C@@H](C)C(=O)O; Ac5c = NC1(C(=O)O)CCCC1; Aze = O=C(O)[C@@H]1CCN1; Sar = CNCC(=O)O
# Experiments:
# [1] = biological target: GDP-bound HRAS wild-type protein (Homo sapiens, UniProt P01112); test: Binding to HRAS by surface plasmon resonance (SPR), Single Cycle Kinetics
# Sequence of GDP-bound HRAS wild-type protein (P01112 whole entry): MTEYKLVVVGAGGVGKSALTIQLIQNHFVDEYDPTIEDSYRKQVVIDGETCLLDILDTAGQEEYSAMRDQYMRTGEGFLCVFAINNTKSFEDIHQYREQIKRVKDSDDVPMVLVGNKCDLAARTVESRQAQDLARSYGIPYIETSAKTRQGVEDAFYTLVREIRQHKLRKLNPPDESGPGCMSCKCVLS
# [2] = biological target: GDP-bound NRAS wild-type protein (Homo sapiens, UniProt P01111); test: Binding to NRAS by surface plasmon resonance (SPR), Single Cycle Kinetics; conditions: for NRAS/KRAS (ratio of KD for GDP-bound NRAS wild-type to KD for KRAS) / NRAS/KRAS (ratio of KD value with respect to NRAS to KD value with respect to KRAS): SPR; for NRAS/KRAS (ratio of KD value with respect to NRAS to KD value with respect to KRAS): GDP-bound NRAS wild-type vs GDP-bound KRAS wild-type; for NRAS/KRAS (ratio of KD value with respect to GDP-bound NRAS wild-type protein to KD value with respect to KRAS): class symbols
# Sequence of GDP-bound NRAS wild-type protein (P01111 whole entry): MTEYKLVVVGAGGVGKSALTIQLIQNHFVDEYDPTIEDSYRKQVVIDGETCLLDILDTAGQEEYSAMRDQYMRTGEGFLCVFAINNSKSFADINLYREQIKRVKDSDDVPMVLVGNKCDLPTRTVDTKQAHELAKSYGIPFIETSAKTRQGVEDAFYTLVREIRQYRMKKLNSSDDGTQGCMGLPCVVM
# [3] = KD ratio, GDP-bound HRAS wild-type vs GDP-bound KRAS wild-type, SPR
# [4] = SPR, GDP-bound HRAS wild-type vs GDP-bound KRAS wild-type
# [5] = SPR, GDP-bound wild-type proteins
smiles,measurement,setting,value
CCCN1C(=O)[C@@H]2CCN2C(=O)[C@H](C)N(C)C(=O)[C@H]([C@@H](C)CC)NC(=O)[C@H](CC(C)C)N(C)C(=O)C[C@@H](C(=O)N2CCOCC2)N(C)C(=O)[C@H](C2CCCC2)N(C)C(=O)C2(CCCC2)NC(=O)[C@@H]2C[C@H](O)CN2C(=O)[C@H](CCc2ccc(C(F)(F)F)c(Cl)c2)NC(=O)CN(C)C(=O)[C@@H]1Cc1ccc(C(F)(F)F)cc1 (stereo in doubt) [PP0238],HRAS/KRAS (ratio of KD for GDP-bound HRAS wild-type to KD for KRAS),[1]; SPR,C (A compound having a KD ratio of 0.1 or more and less than 3 is denoted as C)
same,NRAS/KRAS (ratio of KD for GDP-bound NRAS wild-type to KD for KRAS),[2],C (A compound having a KD ratio of 0.1 or more and less than 3 is denoted as C)
CC[C@H](C)[C@@H]1NC(=O)[C@H](CC(C)C)N(C)C(=O)C[C@@H](C(=O)N2CCOCC2)N(C)C(=O)[C@H](C2CCCC2)N(C)C(=O)C2(CCCC2)NC(=O)[C@@H]2CCCN2C(=O)[C@H](CCc2ccc(C(F)(F)F)c(Cl)c2)NC(=O)CN(C)C(=O)[C@H](Cc2ccc(C(F)(F)F)cc2)N2CCCCC[C@@H](C2=O)N(C)C(=O)CN(C)C1=O (stereo in doubt) [PP0319],HRAS/KRAS (ratio of KD for GDP-bound HRAS wild-type to KD for KRAS),[1]; SPR,B (a compound having 3 or more and less than 10 is denoted as B)
same,NRAS/KRAS (ratio of KD for GDP-bound NRAS wild-type to KD for KRAS),[2],B (a compound having 3 or more and less than 10 is denoted as B)
CCO[C@@H]1C[C@H]2C(=O)NC3(CCC3)C(=O)N(C)[C@@H](C3CCCC3)C(=O)N(C)[C@H](C(=O)N(C)C)CC(=O)N(C)[C@@H](CC)C(=O)N[C@@H]([C@@H](C)CC)C(=O)N(C)CC(=O)N(C)[C@H]3CCCCCN(C3=O)[C@@H](Cc3ccc(C(F)(F)F)cc3)C(=O)N(C)CC(=O)N[C@@H](CCc3ccc(C(F)(F)F)c(C)c3)C(=O)N2C1 (stereo in doubt) [PP0883],HRAS/KRAS (ratio of KD value with respect to HRAS to KD value with respect to KRAS),[1]; [3],B (a compound having 3 or more and less than 10 is denoted as B)
same,NRAS/KRAS (ratio of KD value with respect to NRAS to KD value with respect to KRAS),[2]; KD ratio,B (a compound having 3 or more and less than 10 is denoted as B)
CCC(CC)[C@H]1C(=O)N(C)[C@H](C(=O)N(C)C)CC(=O)N(C)[C@@H](COC)C(=O)N[C@@H]([C@@H](C)CC)C(=O)N(C2CC2)CC(=O)N(C)[C@H]2C/C=C\CCN(C2=O)[C@@H](Cc2ccc(C)cc2)C(=O)N(C)CC(=O)N[C@@H](CCc2ccc(Cl)c(Cl)c2)C(=O)N2C[C@H](OC(C)C)C[C@H]2C(=O)NC2(CC(C)(C)C2)C(=O)N1C (stereo in doubt) [PP2509],HRAS/KRAS (ratio of KD value with respect to HRAS to KD value with respect to KRAS),[1]; [4],A (a compound having 10 or more and less than 20 is denoted as A)
same,NRAS/KRAS (ratio of KD value with respect to NRAS to KD value with respect to KRAS),[2],AA (a compound having 20 or more is denoted as AA)
CCC[C@H]1C(=O)N[C@H]([C@@H](C)CC)C(=O)N2C[C@@H](OC)C[C@H]2C(=O)N(C)[C@H]2C/C=C\CCN(C2=O)[C@@H](Cc2ccc(C)cc2)C(=O)N(C)CC(=O)N[C@@H](CCc2ccc(C(F)(F)F)c(Cl)c2)C(=O)N2C[C@H](OCC)C[C@H]2C(=O)NC2(CCC2)C(=O)N(C)[C@@H](C2CCCC2)C(=O)N(C)[C@H](C(=O)N(C)C)CC(=O)N1C (stereo in doubt) [PP2552],HRAS/KRAS (ratio of KD value with respect to GDP-bound HRAS wild-type protein to KD value with respect to KRAS),[1]; class symbols,B (a compound having 3 or more and less than 10 is denoted as B)
same,NRAS/KRAS (ratio of KD value with respect to GDP-bound NRAS wild-type protein to KD value with respect to KRAS),[2],A (a compound having 10 or more and less than 20 is denoted as A)
CCOC[C@H]1C(=O)N[C@@H]([C@@H](C)CC)C(=O)N(C2CC2)CC(=O)N(C)[C@@H]2C/C=C\CCN(C2=O)[C@@H](Cc2ccc(C)cc2)C(=O)N(C)CC(=O)N[C@@H](CCc2ccc(C(F)(F)F)c(OC)c2)C(=O)N2C[C@H](OCC)C[C@@H]2C(=O)NC2(CC(C)(C)C2)C(=O)N(C)[C@H](CC2CCC2)C(=O)N(C)[C@H](C(=O)N(C)C)CC(=O)N1C (stereo in doubt) [PP2760],HRAS/KRAS (ratio of KD value with respect to GDP-bound HRAS wild-type protein to KD value with respect to KRAS),[1]; class symbols,B (a compound having 3 or more and less than 10 is denoted as B)
same,NRAS/KRAS (ratio of KD value with respect to GDP-bound NRAS wild-type protein to KD value with respect to KRAS),[2],A (a compound having 10 or more and less than 20 is denoted as A)
CCC[C@H]1C(=O)N[C@H]([C@@H](C)CC)C(=O)N(C)CC(=O)N(C)[C@H]2C/C=C\CCN(C2=O)[C@@H](Cc2ccc(C)cc2)C(=O)N(C)CC(=O)N[C@@H](CCc2cc(F)c(C(F)F)c(F)c2)C(=O)N2C[C@H](OCC)C[C@H]2C(=O)NC2(CC(C)(C)C2)C(=O)N(C)[C@@H](C(CC)CC)C(=O)N(C)[C@H](C(=O)N(C)C)CC(=O)N1C (stereo in doubt) [PP2783],HRAS/KRAS (ratio of KD value with respect to GDP-bound HRAS wild-type protein to KD value with respect to KRAS),[1]; class symbols,A (a compound having 10 or more and less than 20 is denoted as A)
same,NRAS/KRAS (ratio of KD value with respect to GDP-bound NRAS wild-type protein to KD value with respect to KRAS),[2],A (a compound having 10 or more and less than 20 is denoted as A)
CC[C@H](C)[C@@H]1NC(=O)[C@H](CC(C)C)N(C)C(=O)C[C@@H](C(=O)N2CCOCC2)N(C)C(=O)[C@H](C2CCCC2)N(C)C(=O)C2(CCCC2)NC(=O)[C@@H]2CCCN2C(=O)[C@H](CCc2ccc(C(F)(F)F)c(Cl)c2)NC(=O)CN(C)C(=O)[C@H](Cc2ccc(C)cc2)N(C)C(=O)[C@@H]2CCN2C(=O)[C@H](C)N(C)C1=O [PP0001] ([NMeL]I[NMeA][Aze][NMePhe(4-Me)][Sar][hPhe(3-Cl-4-CF3)]P[Ac5c][NMeGly(cPent)][NMeD]-Morpholide; lactam N-11),HRAS/KRAS (ratio of KD for GDP-bound HRAS wild-type to KD for KRAS),[1]; SPR,C (A compound having a KD ratio of 0.1 or more and less than 3 is denoted as C)
same,NRAS/KRAS (ratio of KD for GDP-bound NRAS wild-type to KD for KRAS),[2],C (A compound having a KD ratio of 0.1 or more and less than 3 is denoted as C)
CCO[C@@H]1C[C@H]2C(=O)NC3(CC(C)(C)C3)C(=O)N(C)[C@@H](C3CCCC3)C(=O)N(C)[C@H](C(=O)N(C)CC)CC(=O)N(C)[C@@H](C3CCC3)C(=O)N[C@@H]([C@@H](C)CC)C(=O)N(C)CC(=O)N(C)[C@H]3C/C=C\CCN(C3=O)[C@@H](Cc3ccc(C(F)(F)F)cc3)C(=O)N(C)CC(=O)N[C@@H](CCc3ccc(C(F)(F)F)c(OC)c3)C(=O)N2C1 [PP1985],HRAS/KRAS (ratio of KD value for HRAS to KD value for KRAS),[1]; [3],B (a compound having 3 or more and less than 10 is denoted as B)
CCC(CC)[C@H]1C(=O)N(C)[C@H](C(=O)N(C)C)CC(=O)N(C)[C@@H](COC)C(=O)N[C@@H]([C@@H](C)CC)C(=O)N(C2CC2)CC(=O)N(C)[C@H]2C/C=C\CCN(C2=O)[C@@H](CC2CCCCC2)C(=O)N(C)CC(=O)N[C@@H](CCc2ccc(Cl)c(Cl)c2)C(=O)N2C[C@H](OC(C)C)C[C@H]2C(=O)NC2(CC(C)(C)C2)C(=O)N1C [PP2517],HRAS/KRAS (ratio of KD value with respect to HRAS to KD value with respect to KRAS),[1]; [4],A (a compound having 10 or more and less than 20 is denoted as A)
CCC[C@H]1C(=O)N[C@@H](CC(C)C)C(=O)N(C2CC2)CC(=O)N(C)[C@H]2C/C=C\CCN(C2=O)[C@@H](Cc2ccc(C)cc2)C(=O)N(C)CC(=O)N[C@@H](CCc2ccc(C(F)(F)F)c(Cl)c2)C(=O)N2C[C@H](OCC)C[C@H]2C(=O)NC2(CCC2)C(=O)N(C)[C@@H](C2CCCC2)C(=O)N(C)[C@H](C(=O)N(C)C)CC(=O)N1C [PP2543],HRAS/KRAS (ratio of KD value with respect to GDP-bound HRAS wild-type protein to KD value with respect to KRAS),[1]; class symbols,B (a compound having 3 or more and less than 10 is denoted as B)
CC[C@H](C)[C@@H]1NC(=O)[C@H](COC)N(C)C(=O)C[C@@H](C(=O)N2CCCCC2)N(C)C(=O)[C@H](C2CCCC2)N(C)C(=O)C2(CC(C)(C)C2)NC(=O)[C@@H]2C[C@@H](OC(C)C)CN2C(=O)[C@H](CCc2cc(F)c(C(F)(F)F)c(F)c2)NC(=O)CN(C)C(=O)[C@H](Cc2ccc(C(F)(F)F)cc2)N2CC/C=C\C[C@@H](C2=O)N(C)C(=O)CN(C)C1=O [PP2663],HRAS/KRAS (ratio of KD value with respect to GDP-bound HRAS wild-type protein to KD value with respect to KRAS),[1]; class symbols,A (a compound having 10 or more and less than 20 is denoted as A)
CCC[C@H]1C(=O)N[C@@H]([C@@H](C)CC)C(=O)N(C)CC(=O)N(C)[C@H]2C/C=C\CCN(C2=O)[C@@H](Cc2ccc(C)cc2)C(=O)N(C)CC(=O)N[C@@H](CCc2ccc(Cl)c(OC)c2)C(=O)N2C[C@H](OCC)C[C@H]2C(=O)NC2(CC(C)(C)C2)C(=O)N(C)[C@@H](C(CC)CC)C(=O)N(C)[C@H](C(=O)N(C)C)CC(=O)N1C [PP2791],HRAS/KRAS (ratio of KD value with respect to GDP-bound HRAS wild-type protein to KD value with respect to KRAS),[1]; class symbols,A (a compound having 10 or more and less than 20 is denoted as A)
CCO[C@@H]1C[C@H]2C(=O)NC3(CC(C)(C)C3)C(=O)N(C)[C@@H](C3CCCC3)C(=O)N(C)[C@H](C(=O)N(C)C)CC(=O)N(C)[C@H]3CCCCCCc4ccc(cc4)C[C@@H](C(=O)N(C)CC(=O)N[C@@H](CCc4ccc(C(F)(F)F)c(OC)c4)C(=O)N2C1)N1CC/C=C\C[C@@H](C1=O)N(C)C(=O)CN(C1CC1)C(=O)[C@H]([C@@H](C)CC)NC3=O [PP3070],HRAS/KRAS (ratio of KD value with respect to GDP-bound HRAS wild-type protein to KD value with respect to KRAS),[1]; [5],B (a compound having 3 or more and less than 10 is denoted as B)
"CCC[C@H]1C(=O)N[C@@H]([C@@H](C)CC)C(=O)N(C)CC(=O)N(C)[C@H]2C/C=C\CCN(C2=O)[C@@H](Cc2ccc(C(F)(F)F)cc2)C(=O)N(C)CC(=O)N[C@@H](CCc2ccc(C(F)(F)F)c(OC)c2)C(=O)N2C[C@H](OCC)C[C@H]2C(=O)N(C)C2(CCC2)C(=O)N(C)[C@@H](C2CCCC2)C(=O)N(C)[C@H](C(=O)N2CCCCC2)CC(=O)N1C [PP3103, (2S,8S,12R,14S,20S,23S,27S,30S,36S,38Z)-20-cyclopentyl-12-ethoxy-8-[2-[3-methoxy-4-(trifluoromethyl)phenyl]ethyl]-4,16,19,22,26,32,35-heptamethyl-30-[(1S)-1-methylpropyl]-23-(piperidine-1-carbonyl)-27-propyl-2-[[4-(trifluoromethyl)phenyl]methyl]spiro[1,4,7,10,16,19,22,26,29,32,35-undecazatricyclo[34.5.1.0^10,14]dotetracont-38-ene-17,1′-cyclobutane]-3,6,9,15,18,21,25,28,31,34,42-undecone]",HRAS/KRAS (ratio of KD value with respect to GDP-bound HRAS wild-type protein to KD value with respect to KRAS),[1]; [5],A (a compound having 10 or more and less than 20 is denoted as A)
